Source: PMC4490768 (Cellular signalling, 2011)
pEC50: −log10 of the molar value.

Target: T1, ALK2ca T283S (constitutively active ALK2) (Homo sapiens, UniProt Q04771, Q207D/T283S)
T1 sequence (Q04771 21-509 Q207D/T283S): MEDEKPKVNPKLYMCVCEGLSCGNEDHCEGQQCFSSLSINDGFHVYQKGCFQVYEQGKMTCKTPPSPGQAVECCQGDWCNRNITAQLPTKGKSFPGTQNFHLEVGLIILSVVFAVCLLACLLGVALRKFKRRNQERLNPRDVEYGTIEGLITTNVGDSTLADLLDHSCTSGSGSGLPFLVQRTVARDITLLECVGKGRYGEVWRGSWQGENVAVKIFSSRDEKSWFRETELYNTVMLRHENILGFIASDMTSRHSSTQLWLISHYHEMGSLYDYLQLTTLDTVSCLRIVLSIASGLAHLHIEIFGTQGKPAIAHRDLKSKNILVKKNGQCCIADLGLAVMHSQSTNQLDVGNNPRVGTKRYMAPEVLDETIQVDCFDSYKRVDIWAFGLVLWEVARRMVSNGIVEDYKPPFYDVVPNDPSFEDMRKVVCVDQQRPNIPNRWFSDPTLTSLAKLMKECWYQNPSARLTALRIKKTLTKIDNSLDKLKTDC
Experiment: BRE2-luc luciferase reporter in NIH-3T3 cells expressing ALK2ca T283S
Type: cell-based

Work on NC(=O)c1ccc(-c2nc(-c3ccc4c(c3)OCO4)c(-c3ccccn3)[nH]2)cc1 [SB431542] yielded a pEC50 of 5.60.
